Measurements from paper PMC4128063, “Investigating G protein signalling bias at the glucagon-like peptide-1 receptor in yeast” (British Journal of Pharmacology, 2014).
Read-outs that look alike come from different tables or passages of the source.

How the values were obtained:
Assay type in all cases: cell-based
[1] = molecular target: GLP-1 receptor (GPA1/Gαi chimera) (Homo sapiens, UniProt P43220); assay: Yeast growth assay, GPA1/Gαi chimera strain expressing the GLP-1 receptor
GLP-1 receptor = GLP-1 receptor (Homo sapiens, UniProt P43220); assay: G protein signalling bias, GPA1/Gαs versus GPA1/Gαi, yeast assays; settings: normalized responses at equivalent ligand concentrations
Method: The strains used contain the HIS3 gene under the control of the pheromone-responsive FUS3 promoter. Receptor agonism induces expression of the reporter gene enabling growth in media lacking histidine (-HIS). […] Initially, cells were grown for 24 h in SD media lacking uracil (-URA) at 30°C to select for only those expressing the receptor. […] Finally, the cultures were diluted in SD-URA-HIS media, supplemented with FDGlu at a final concentration of 20 μM, to an OD600 of 0.02. […] Different concentrations of ligands (0.01 nM–100 mM) were added and yeast growth was measured using either a TECAN Infinite M200 microplate reader (TECAN Ultra Evolution, Reading, UK) or a Mithras LB940 microplate reader (Berthold Technologies, Harpenden, UK) for 20 h.
Data were analysed using Prism 6.0c (Graphpad Software, San Diego, CA, USA). Concentration-response curves were fitted using the three-parameter logistic equation to obtain EC50 and Emax values. […] Statistical differences were analysed using one-way ANOVA with Bonferroni's or Dunnett's multiple comparisons or Student's test as appropriate and a probability (P) < 0.05 was considered significant.

[2] = molecular target: GLP-1 receptor (GPA1/Gαs chimera) (Homo sapiens, UniProt P43220); assay: Yeast growth assay, GPA1/Gαs chimera strain expressing the GLP-1 receptor
[3] = yeast, 20 h, percentage of the maximum response achieved through activation of GPA1/Gαs, mean ± SEM, n = 5, SEM
[4] = yeast, 20 h, three-parameter logistic fit, mean ± SEM, n = 5, SEM

GLP-1 receptor (GPA1/Gαs chimera), sequence (P43220 24-463, change not shown): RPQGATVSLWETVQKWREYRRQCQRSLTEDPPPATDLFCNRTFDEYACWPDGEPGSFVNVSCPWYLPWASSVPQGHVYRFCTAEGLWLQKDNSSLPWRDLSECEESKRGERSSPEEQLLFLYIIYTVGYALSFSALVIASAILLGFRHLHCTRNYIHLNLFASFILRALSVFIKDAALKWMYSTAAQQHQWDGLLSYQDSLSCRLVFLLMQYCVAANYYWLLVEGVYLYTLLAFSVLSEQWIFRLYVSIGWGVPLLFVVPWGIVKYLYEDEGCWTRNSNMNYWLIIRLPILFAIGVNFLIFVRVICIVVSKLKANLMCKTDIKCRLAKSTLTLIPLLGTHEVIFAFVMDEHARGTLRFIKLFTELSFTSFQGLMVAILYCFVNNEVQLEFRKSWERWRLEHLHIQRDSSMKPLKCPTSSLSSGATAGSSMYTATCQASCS
GLP-1 receptor (GPA1/Gαi chimera), sequence (P43220 24-463, change not shown): as above
GLP-1 receptor, sequence (P43220 24-463): as the sequence (P43220 24-463, change not shown) above

SMILES | EC50 ([1]; pEC50 (GLP-1 receptor, GPA1/Gαi), non-peptide agonists, yeast, 20 h, three-parameter logistic fit, mean ± SEM, n = 5, SEM) [nM] | Emax ([1]; read-out: Emax (GLP-1 receptor, GPA1/Gαi), non-peptide agonists, yeast, 20 h, percentage of the maximum response achieved through activation of GPA1/Gαs, mean ± SEM, n = 5, SEM) [%] | EC50 ([1]; value quoted in running text, read-out: EC50 (yeast, GPA1/Gαi)) [nM] | Equimolar bias plot, GPA1/Gαs versus GPA1/Gαi (GLP-1 receptor) | EC50 ([2]; pEC50 (GLP-1 receptor, GPA1/Gαs), non-peptide agonists, yeast, 20 h, three-parameter logistic fit, mean ± SEM, n = 5, SEM) [nM] | Emax ([2]; read-out: Emax (GLP-1 receptor, non-peptide agonists), yeast, 20 h, percentage of the maximum response achieved through activation of GPA1/Gαs, mean ± SEM, n = 5, SEM) [%] | EC50 ([2]; value quoted in running text, read-out: EC50 (yeast, GPA1/Gαs)) [nM] | Emax (GLP-1 receptor, GPA1/Gαi), non-peptide agonists [1, 3] [%] | pEC50 (GLP-1 receptor, GPA1/Gαi), non-peptide agonists [1, 4] | Emax (GLP-1 receptor, GPA1/Gαs), non-peptide agonists [2, 3] [%] | pEC50 (GLP-1 receptor, GPA1/Gαs), non-peptide agonists [2, 4]
CC[S+]([O-])c1nc(-c2cccc(OCc3ccccc3)c2)cc(C(F)(F)F)n1 (centres unmarked) [BETP, 4-(3-benzyloxyphenyl)-2-ethylsulfinyl-6-(trifluoromethyl) pyrimidine] | 15.8 | 96.5 ± 4.3 | 15 | did not deviate from the no-bias line of unity | 7.94 | 100 ± 5.1 | 10 | – | – | – | –
CC(C)(C)Nc1nc2cc(Cl)c(Cl)cc2nc1S(C)(=O)=O [Compound 2, 6,7-dichloro-2-methylsulfonyl-3-N-tert-butylaminoquinoxaline] | – | – | – | – | – | – | – | 67.5 ± 7.3 | 8.5 ± 0.3 | 100 ± 7.3 | 8.6 ± 0.2
